From patent US11564913B2, “Compositions and methods for treating cancer” (Children's Hospital Medical Center, priority 2019, dated 2023)

How the values were obtained:
[1] = tested on: MCF10A cells; test: Spheroid formation, hanging drop method; assay type: cell-based
Protocol: (§1) FIG. 6: IODVA1 inhibits cell-substratum and cell-cell interactions. (A) IODVA1 impedes spreading of MCF7 and MDA-MB-231 cells on fibronectin. MCF7, T47D, and MDA-MB-231 cells were incubated on fibronectin coated coverslips for 10 min, then further incubated with the indicated concentrations of IODVA1 for 30 min in serum-free media, fixed and observed by bright field microscopy. Areas of single cells were calculated from 6 random fields (no less than 300 cells total per treatment group). Results shown are mean±s.e.m. of a single experiment and are representative of three independent experiments. (B) Effects of IODVA1 treatment on spheroid formation in MCF10A, MCF7, T47D, and MDA-MB-231 cells. Left panel—representative bright field images of hanging drop cultures of MCF10A, MCF7, T47D, and MDA-MB-231 cells grown in the absence (0 μM) and presence of IODVA1 (1 μM) prior to and post mechanical pipetting (trituration). Scale bar=200 μm. Right panel, changes in spheroid/aggregate size due to IODVA1 treatment indicated by the diameter of the spheroids. Results shown are mean±stdev, N=15. (C) IODVA1 treatment reduces proliferation capacity in adhesion-free environment. MCF7, T47D, and MDA-MB-231 cells were grown in complete media in the presence of IODVA1 or vehicle control in ultra-low attachment plates for 5 days. Aggregates and spheroids were dissociated with accutase and trituration, and the number of live cells was determined by trypan blue exclusion. Results shown are combined mean±stdev of two independent experiments. n.s.—not significant, *-p<0.05, **-p<0.01, ***-p<0.001, ****-p<0.0001.
(§2) In vitro 3D assays, such as spheroid formation, serve as an intermediate between 2D (monolayer) cellular assays and in vivo animal models. Spheroid formation is mediated by matrix development and remodeling and changes in the cytoskeleton and cell-cell contacts and adhesion. To evaluate the effect of IODVA1 on spheroid formation, single cell suspension were plated in complete media containing vehicle control or IODVA1 at 0.1-3 μM range using the hanging drop and ultra-low attachment (ULA) methods (Foty R. 2011). […]
(§3) Spheroids were formed by the hanging drop method or using ultra-low attachment (ULA) plates (Corning). […] Spheroid formation was monitored daily and imaged using EVOS microscope (Life Technologies). For assessment of attachment-free proliferation, the contents of the well were transferred into an Eppendorf tube, centrifuged at 100×g for 5 min, dissociated into a single cell suspension using trituration and Accutase (Invitrogen) treatment at room temperature and counted using trypan blue exclusion.

[2] = tested on: MCF7 cells; test: Spheroid formation, hanging drop method; assay type: cell-based; conditions: 1 μM
Protocol: as §1, §2, §3

[3] = tested on: T47D cells; test: Spheroid formation, hanging drop method; assay type: cell-based; conditions: 1 μM
Protocol: as §1, §2, §3

[4] = tested on: H2122 lung cancer xenografts; test: H2122 xenograft mouse model; assay type: in vivo, mice
Excerpt: FIG. 8: IODVA1 inhibits tumor growth of human breast and lung cancer xenografts. […] (B) Tumors were also stained for Ki67 as a proliferation marker (top panel). […] (C) Quantification of Ki67-positive and cleaved caspase 3-positive cells of tumors shown in (B). […] Animals began treatment when tumors became detectable at 10 days post-injection (*, p<0.05). […] IODVA1 treated tumors also had fewer proliferating cells compared to control vehicle treated animals, as determined by immunohistochemical staining for Ki67 (bottom) and increased intratumoral fibrosis. Representative images were taken at 100× magnification, scale bar is 200 μm. (F) Quantification of Ki67+ cells in control and IODVA1 treated tumors shown in (E).
The lung cancer mouse model was generated by injecting the lung cancer H2122 cells at the right and left flanks of NSG mice. These cells harbor the KRAS^G12C mutation and form aggressive tumors. Mice were treated with IODVA1 or with vehicle control every other day for 14 days. […]
Human lung cancer cell line NCI-H2122 (ATCC) harboring biallelic KRAS^G12C mutations were cultured in RPMI-1640 supplemented with 10% FBS. […] Tumor size was measured using digital calipers and tumor volume estimated using the formula (length×width^2)/2. […] A minimum of 20 random fields were used for quantification. […]

[5] = tested on: pPAK and pBAD in p190-BCR-ABL Ba/F3 cells; test: Immunoblot for pPAK(T423) and pBAD(S136); assay type: cell-based, murine; conditions: 3 μM, within minutes of cell exposure

`OC1(c2ccccn2)N=C(Nc2nc3ccccc3[nH]2)N=C1c1ccccn1` (centres unmarked) [IODVA1, (Z)-2-((1H-benzo[d]imidazol-2-yl)imino)-4,5-di(pyridin-2-yl)-2,5-dihydro-1H-imidazol-5-ol] was tested, and the effect on spheroids [1] was “No effect”, the “spheroids after mechanical disruption by pipetting” value [2] was “complete dissociation” and the spheroid size ([2]; 96 h) was “formed smaller spheroids”. The spheroid formation [3] was “failed to form packed spheroids”, the tumor volume ([4]; IP 250 μl of 1 mM every other day for 14 days) was “significant decrease” and the “number of Ki67-positive tumor cells” value ([4]; IP every other day for 14 days) was “significant decrease”. For the same compound, the “inhibitory phosphorylation of BAD Ser136” value [5] was “decreases” and the pPAK [5] was “decreases”.
